According to US20260294880A1, “COMPOSITION FOR TREATING OTOTOXIC HEARING LOSS CAUSED BY AMINOGLYCOSIDE ANTIBIOTICS” (KYUNGPOOK NATIONAL UNIVERSITY INDUSTRY-ACADEMIC COOPERATION …, priority 2023, published 2026):

Legend:
Assay type in all cases: cell-based, ICR mice
[1] = system: mitochondrial membrane potential of cochlear hair cells; assay: JC-1 assay of mitochondrial membrane potential in cochlear explants; conditions: for red/green fluorescence ratio (mitochondrial membrane potential) after antibiotic treatment: KM, AK, or GM only
Method: (§1) Three-day-old ICR (Institute for Cancer Research) mice were purchased from Hyochang Science (Daegu, South Korea) for […]. Dissected cochleae were cultured in high-glucose Dulbecco's Modified Eagle's Medium (DMEM; Hyclone, Logan, UT, USA) containing 10% fetal bovine serum (Hyclone) and ampicillin (10 μg/mL; Life Technologies, Carlsbad, CA, USA) at 37° C. in a humidified atmosphere in the presence of 5% CO2. After 16 hours of culture, cochleae were first treated with 0.1 μM or 1 μM BC for 1 hour, followed by addition of one of three aminoglycoside antibiotics (1.2 mM KM, 3 mM AK, or 100 μM GM) to the culture medium. BC concentrations were optimized for each aminoglycoside (0.1 μM for KM, 1 μM for AK and GM).
The cationic fluorescent dye MitoProbe™ JC-1 (Invitrogen-Molecular Probes) was used to measure the mitochondrial membrane potential. After 30 hours of culture, the specimens were washed with PBS and stained with JC-1 (2 μM) for 2 hours at 37° C. in the presence of 5% CO2 in a darkroom. The sensitivity of the JC-1 assay was verified by adding 50 μM carbonyl [COMPOUND LEFT OUT] 3-chlorophenylhydrazone (CCCP) to untreated specimens before JC-1 staining, and then the specimens were cultured at 37° C. in the presence of 5% CO2 for 5 minutes for activation of CCCP. JC-1 fluorescence was split into red and green, and then the segmented images were converted to grayscale, followed by evaluation using ImageJ software (http://imageJ.nih.gov/ij/).

[2] = system: cells of the organ of Corti; assay: TUNEL assay of apoptotic DNA fragmentation in cochlear explants; conditions: for apoptotic DNA fragmentation / cell death induced by antibiotic: KM, AK, or GM in mouse cochlea, no BC
Method: as §1
To detect DNA fragmentation leading to cell death, a TUNEL assay kit (Promega, Madison, WI) was used according to the manufacturer's protocol. Specimens were fixed with 4% paraformaldehyde in PBS for 15 minutes at room temperature (RT) and treated with 0.1% PBS-Tx in 0.1% sodium citrate for 30 minutes at 37° C. Fragmented DNA from cells was stained using TUNEL working solution at 37° C. for 30 minutes. F-actin was labeled with Alexa Fluor 555-conjugated phalloidin in PBS-Tx for 3 hours at room temperature (RT) in the dark and visualized using a Zeiss Axio Imager A2 fluorescence microscope.

[3] = system: inner hair cells (IHCs) and outer hair cells (OHCs) of the organ of Corti; assay: Phalloidin staining of stereocilia / hair cell morphology in organotypic cochlear explants; conditions: for hair cell morphology / damage after antibiotic treatment / relative severity of damage, OHC versus IHC: cochlear explants, no BC; for hair cell morphology / damage after antibiotic treatment: 1.2 mM KM, 3 mM AK or 100 μM GM; for relative severity of damage, OHC versus IHC: 1.2 mM KM or 100 μM GM
Method: as §1
(§2) To evaluate the morphology of inner hair cells (IHCs) and outer hair cells (OHCs) of the organ of Corti, the specimens were cultured for 48 hours and fixed with 4% paraformaldehyde (PFA, pH 7.4) in PBS for 15 minutes. After washing three times with PBS, a stereociliary bundle of explants was stained with Alexa Fluor 488-or 555-conjugated phalloidin (1:1,000; Invitrogen-Molecular Probes, Eugene, OR) in PBS for 1 hour at room temperature (RT). Specimens were mounted on glass slides using Fluoromount (Sigma-Aldrich, St. Louis, MO) and visualized using an Axio Imager A2 fluorescence microscope (Carl Zeiss, Oberkochen, Germany).

[4] = system: IHCs and OHCs (cochlear hair cells); assay: Quantification of surviving hair cells with V-shaped stereocilia in cochlear explants; conditions: for IHC survival / cytotoxicity to IHC: 3 mM AK, 1.2 mM KM, 100 μM GM, no BC
Method: as §1, §2
[Example 5] Quantification of hair cells and statistical analysis For quantitative analysis of hair cell damage, IHCs and OHCs with intact v-shaped […] were individually counted along a 200 μm length of basilar membrane in the apical (30%), middle (50%), and basal (70%) regions of each cochlear probe. All experiments were performed independently at least three times.

[5] = system: cleaved caspase-3 in organ of Corti; assay: Immunohistochemistry for cleaved (active) caspase-3 in cochlear explants; conditions: for level of cleaved caspase-3 after antibiotic treatment: KM, AK, or GM versus untreated controls, no BC
Method: as §1
Immunohistochemistry and TUNEL assay for active caspase-3 were used to determine whether cell death in the organ of Corti occurred by apoptosis. Specimens were fixed with 4% PFA, kept permeabilized with 0.1% Triton X-100 in PBS (PBS-Tx) for 30 minutes at room temperature (RT), blocked with 5% normal goat serum for 1 hour at room temperature (RT), and cultured overnight with anti-caspase-3 antibody (1:1,000; Cell Signaling Technology, Bevery, MA) diluted in blocking solution.

[6] = system: mitochondrial reactive oxygen species (ROS) in cochlear hair cells; assay: MitoSOX Red assay of mitochondrial ROS in cochlear explants
Method: as §1
To analyze AK or KM-induced mitochondrial oxidative stress, cochlear explants were examined by MitoSOX Red assay and JC-1 assay. Levels of mitochondrial reactive oxygen species (ROS) were detected by staining with 5 μM MitoSOX Red (Invitrogen-Molecular Probes) for 5 minutes in a humidified atmosphere at 37° C. in the presence of 5% CO2. The specimen was washed with PBS and visualized using a Zeiss Axio Imager A2 fluorescence microscope.

NCC[C@H](O)C(=O)N[C@@H]1C[C@H](N)[C@@H](O[C@H]2O[C@H](CN)[C@@H](O)[C@H](O)[C@H]2O)[C@H](O)[C@H]1O[C@H]1O[C@H](CO)[C@@H](O)[C@H](N)[C@H]1O [AK, amikacin]
red/green fluorescence ratio (mitochondrial membrane potential) after antibiotic treatment ([1]; JC-1): significant decrease in the red/green ratio along with a loss of red signal | apoptotic DNA fragmentation / cell death induced by antibiotic [2]: resulted in cell death | hair cell morphology / damage after antibiotic treatment [3]: most of their cilia disintegrated and lost, making them unrecognizable | IHC survival / cytotoxicity to IHC [4]: virtually destroyed | level of cleaved caspase-3 after antibiotic treatment [5]: significantly increased levels of cleaved caspase-3 compared to untreated controls

NC[C@H]1O[C@H](O[C@H]2[C@H](O)[C@@H](O[C@H]3O[C@H](CO)[C@@H](O)[C@H](N)[C@H]3O)[C@H](N)C[C@@H]2N)[C@H](O)[C@@H](O)[C@@H]1O [KM, kanamycin]
red/green fluorescence ratio (mitochondrial membrane potential) after antibiotic treatment ([1]; JC-1): significant decrease in the red/green ratio along with a loss of red signal | apoptotic DNA fragmentation / cell death induced by antibiotic [2]: resulted in cell death | relative severity of damage, OHC versus IHC [3]: more severe in OHC than in IHC | hair cell morphology / damage after antibiotic treatment [3]: not only altered the ciliary morphology of hair cells but also disrupted cell arrangement, with induction of cell loss in a complex manner | IHC survival / cytotoxicity to IHC [4]: more resistant | level of cleaved caspase-3 after antibiotic treatment [5]: significantly increased levels of cleaved caspase-3 compared to untreated controls

gentamicin [GM]
red/green fluorescence ratio (mitochondrial membrane potential) after antibiotic treatment ([1]; JC-1): significant decrease in the red/green ratio along with a loss of red signal | apoptotic DNA fragmentation / cell death induced by antibiotic [2]: resulted in cell death | relative severity of damage, OHC versus IHC [3]: caused more severe damage to OHCs than IHCs, with loss of hair cells | IHC survival / cytotoxicity to IHC [4]: more resistant | level of cleaved caspase-3 after antibiotic treatment [5]: significantly increased levels of cleaved caspase-3 compared to untreated controls

COc1ccc2cc3[n+](cc2c1OC)CCc1cc2c(cc1-3)OCO2 [BC, berberine chloride]
red/green fluorescence ratio (mitochondrial membrane potential) with BC ([1]; BC pretreatment, then KM, AK or GM, JC-1, n=3 per group, *P<0.05 and **P<0.01): red/green fluorescence ratio was found to increase | statistical significance of protective effect on mitochondrial membrane potential ([1]; BC pretreatment, then KM, AK or GM, n=3 per group, *P<0.05 and **P<0.01): statistically significant | decrease of MitoSOX Red fluorescence intensity (mitochondrial ROS) ([6]; BC pretreatment, then KM, AK or GM): significant decrease in fluorescence intensity | statistical significance of reduced integrated density of red fluorescence ([6]; BC treatment group versus AK, KM, and GM groups): statistically significant compared to the AK, KM, and GM groups | reduction of apoptotic DNA fragmentation (TUNEL labeling) ([2]; BC pretreatment compared with KM, AK, or GM treatment): significant reduction by BC pretreatment to near control levels | protection against stereocilia degeneration and hair cell loss ([3]; 0.1 or 1 μM BC for 1 hour before antibiotic (KM, AK, or GM), apical, middle, basal regions): alleviated stereocilia degeneration and hair cell loss in all cochlear regions | reduction of antibiotic-induced hair cell damage (surviving hair cells) ([4]; BC pretreatment (0.1 μM for KM, 1 μM for AK and GM), IHC and OHC, apical, middle and basal turns): antibiotic-induced damage was reduced to near-normal levels | cytotoxicity of BC to IHC and OHC ([4]; BC, cochlear explants): no detrimental effects on IHC or OHC | reduction of cleaved caspase-3 ([5]; BC pre-treatment before antibiotics (KM, AK, GM)): reduced cleaved caspase-3
